Laboratory results published in the NIST ThermoML archive (doi:10.1016/j.jct.2012.01.016).
Values joined by “and” are separate entries in the source; they are usually repeats but may differ in a detail not shown here. Identical values can stand only once.

Assay: activity coefficient (dimensionless); of the first substance listed, at infinite dilution; xn = mol fraction of the nth substance listed
Details: 298.15 K; Liquid; Headspace solid phase microextraction; x1 = 0
In the case of `Cc1ccccc1C` [1,2-dimethylbenzene] + O=Cc1ccco1, the activity coefficient was 4.12 and 3.74. With `c1ccccc1` [benzene] + O=Cc1ccco1 the activity coefficient was 2.61 and 2.45. With `C1CCCCC1` [cyclohexane] + O=Cc1ccco1 the activity coefficient was 15.7 and 15.5. For `C1CCCC1` [cyclopentane] + O=Cc1ccco1, the activity coefficient was 11.6 and 11.4. In the case of `CCc1ccccc1` [ethylbenzene] + O=Cc1ccco1, the activity coefficient was 4.84 and 4.52. In the case of `CCCCCCC` [heptane] + O=Cc1ccco1, the activity coefficient was 32 and 31.6. For `CCCCCC` [hexane] + O=Cc1ccco1, the activity coefficient was 25.6 and 25.3. For `CCCCC` [pentane] + O=Cc1ccco1, the activity coefficient was 20.8 and 20.4. For `Cc1ccccc1` [toluene] + O=Cc1ccco1, the activity coefficient was 3.72 and 3.46.

Same assay, conditions: 308.15 K; Liquid; Headspace solid phase microextraction; x1 = 0
With `Cc1ccccc1C` [1,2-dimethylbenzene] + O=Cc1ccco1 the activity coefficient was 4.44 and 3.55. With `c1ccccc1` [benzene] + O=Cc1ccco1 the activity coefficient was 2.93 and 2.4. With `C1CCCCC1` [cyclohexane] + O=Cc1ccco1 the activity coefficient was 13.5 and 12.9. With `C1CCCC1` [cyclopentane] + O=Cc1ccco1 the activity coefficient was 10.7 and 10.1. For `CCc1ccccc1` [ethylbenzene] + O=Cc1ccco1, the activity coefficient was 5.02 and 4.35. In the case of `CCCCCCC` [heptane] + O=Cc1ccco1, the activity coefficient was 30.8 and 29.6. For `CCCCCC` [hexane] + O=Cc1ccco1, the activity coefficient was 23.6 and 22.8. With `CCCCC` [pentane] + O=Cc1ccco1 the activity coefficient was 17.9 and 16.9. For `Cc1ccccc1` [toluene] + O=Cc1ccco1, the activity coefficient was 3.79 and 3.33.

Same assay, conditions: 318.15 K; Liquid; Headspace solid phase microextraction; x1 = 0
For `Cc1ccccc1C` [1,2-dimethylbenzene] + O=Cc1ccco1, the activity coefficient was 6.77 and 4.61. In the case of `c1ccccc1` [benzene] + O=Cc1ccco1, the activity coefficient was 3.87 and 2.89. With `C1CCCCC1` [cyclohexane] + O=Cc1ccco1 the activity coefficient was 12 and 10.9. In the case of `C1CCCC1` [cyclopentane] + O=Cc1ccco1, the activity coefficient was 10.4 and 9.3. With `CCc1ccccc1` [ethylbenzene] + O=Cc1ccco1 the activity coefficient was 7.21 and 5.25. With `CCCCCCC` [heptane] + O=Cc1ccco1 the activity coefficient was 28.3 and 26.4. For `CCCCCC` [hexane] + O=Cc1ccco1, the activity coefficient was 22.2 and 21.2. For `CCCCC` [pentane] + O=Cc1ccco1, the activity coefficient was 16.8 and 15. With `Cc1ccccc1` [toluene] + O=Cc1ccco1 the activity coefficient was 5.3 and 3.8.
